Values of other authors in patent US20150307774A1, “Chelates, chelating agents, conjugates derived thereof and their use” (priority 2012, published 2015).

Conditions: at this pH (7.4), calculated from literature data

O=C(O)CN(CCN(CC(=O)O)CC(=O)O)CC(=O)O [EDTA]
conditional stability constant: 14.53 Log units
